Experimental data from patent US20240299269A1, “HYDROXY ACIDS FOR SCALP AND HAIR IN PERSONAL CARE COMPOSITIONS” (The Procter & Gamble Company, priority 2023, published 2024).

Tests used:
[1] = calcium binding constant; cited from earlier work
[2] = octanol/water; cited from earlier work
[3] = In vitro calcium chelation screening of weak acids (octanol/water, ICP-OES); type: physicochemical; settings: for % Calcium in Water Phase: 3% hydroxy acid in water, pH approximately 3, 1000 ppm CaCO3 in octanol, vortexed 2 minutes, 2 hours
Method: A high throughput in-vitro screening method is developed to help identify lead acids that could function as calcium chelators. The intent of the method is to mimic the lipid matrix of the scalp and to quantify the amount of calcium that could be extracted from that matrix. […] Equal parts of the lipid and water phases are added to a conical vial and vortexed for 2 minutes. The vials are left to sit for 2 hours and then the lower water phase is extracted from the concial vial and submitted for Calcium analysis via ICP-OES. […] [formula]

Compound	logK_1 [1]	logK_3 [1]	LogP [2]	% Calcium in Water Phase [3] [%]	calcium chelation ability ([3]; among hydroxy acids screened)
O=C(O)CC(O)(CC(=O)O)C(=O)O [Citric Acid]	1.100	4.680	–	–	–
O=C(O)[C@H](O)[C@@H](O)[C@H](O)[C@H](O)CO [Gluconic Acid]	1.880	–	−1.870	–	–
O=C(O)CO [Glycolic Acid]	1.590	–	−1.050	–	–
CC(O)C(=O)O (stereo not drawn) [Lactic Acid]	1.450	–	–	78	–
O=C(O)c1ccccc1O [Salicylic Acid]	1.100	–	–	29	lower calcium chelation ability
O=C(O)C(O)C(O)C(=O)O (stereo not drawn) [Tartaric Acid]	–	–	−0.760	–	–
